The subject of one assay is primary cortical neurons. As to the kind of experiment: Cytoprotection against NMDA excitotoxicity (propidium iodide staining). The conditions noted are these: 25 μM pretreatment 72 h or 48 h, NMDA 200 μM 30 min. In kind it is cell-based, rat. Here is the method:
FIG. 7: Cytoprotection of Idoxuridine against excitotoxicity of NMDA. Mature primary neurons were pretreated with Idoxuridine (25 μM) or DMSO (ctrl cells) for 72 h or 48 h and subsequently exposed to NMDA (200 μM) for 30 min. Cell viability was assessed by propidium iodide (PI) staining. Both control and treated cells were incubated for 30 min with 6 μM PI which stains nuclei of dead cells. After extensive washing with Tyrode's buffer, samples were fixed and stained with DAPI to visualize all cell nuclei. PI positive cells were counted at several regions on coverslips and expressed as percentage of total cells visualized with DAPI stain. […] Data are expressed as means+/−SD and analyzed by one-way ANOVA with Dunnett's posthoc test. *p<0.001
Primary cortical neurons: Primary cortical neurons were prepared from E18 rat embryos. Cortices were isolated, cleared from meninges and dissociated after incubation in HBSS (Ca^2+ and Mg^2+-free) with 0.25% trypsin for 20 min at 37° C. […]
Mature primary neurons were pretreated with Idoxuridine (25 μM) or DMSO (ctrl cells) for 72 h or 48 h and subsequently exposed to NMDA (200 μM) for 30 min. Cell viability was assessed by propidium iodide (PI) staining. […] PI positive cells were counted at several regions on coverslips and expressed as percentage of total cells visualized with DAPI stain. […]

In assay [1] the test system is GPR37-tGFP overexpressing cells. As to the kind of experiment: Cytoprotection against MG132, GPR37-tGFP overexpressing cells. In kind it is cell-based, mouse. Here is the method: FIG. 8: Cytoprotection of Idoxuridine against MG132. MG132-induced proteasomal inhibition reduced cell viability. […] Data represented as mean+SD. Analysis performed via one-way ANOVA with Neuman-Keuls post-test for both Figures. *** indicates p<0.001. 2 mM 4-PBA used as a positive unspecific control. MG132 is a potent 26S proteasome inhibitor which increases protein accumulation, ROS leakage, induces cell cycle arrest and apoptosis.

For assay [2], the system named is WT cells. As to the kind of experiment: Cytoprotection against H2O2, WT cells. It counts as cell-based, mouse. To be noted: in-well H2O2 0.00025%. An excerpt:
(§1) FIG. 10: Cytoprotection of Idoxuridine against […]. H2O2 reduces cell viability by increasing oxidative stress. This effect was counteracted by idoxuridine in GPR37-tGFP overexpressing cells (A) and WT (B) cells. […] In-well H2O2 concentration used was 0.00025%. […]

A further assay concerns N2a-WT cells. As to the kind of experiment: Cytoprotection against 6-OHDA (MTT assay), N2a-WT cells. It counts as cell-based, mouse. To be noted: 2 μM pretreatment 72 h, then 6-OHDA 24 h. The method, then: FIG. 6. GPR37-associated cytoprotection of Idoxuridine against parkinsonian drug 6-OHDA. N2a-WT and N2a-GPR37-tGFP cells were grown in differentiating medium containing either 2 μM idoxuridine, 0.1% DMSO (negative control) or 1 mM dbcAMP (positive control). 72 h later cells were treated with either 6-OHDA (10, 20, 35 100 μM) or vehicle control and incubated for 24 h. Cell viability was quantified by MTT assay. Data are pooled from three independent experiments with 6 technical replicates for each condition and are expressed as means+/−SD. To assess the […] effect of idoxuridine against 6-OHDA-toxicity data were analyzed using a 2-way ANOVA followed by a Bonferroni correction test. Each cell line was statistically analyzed separately, with pretreatment and 6-OHDA treatment as variables; or GPR37 expression and 6-OHDA-treatment as variables. For simplicity, only idoxuridine related significance is indicated; significances between positive and negative controls are not shown; ****p<0.0001, ***p<0.001, **p<0.01. Test compound (5 μL) of desired concentration (Idoxuridine, final concentration 2 μM); positive control (dibutyryl-cAMP, final concentration 1 mM); and negative control (DMSO, final concentration 0.1%) were plated in a 96-well plate. […] Absorbance was measured at 570 nm (formazan product) and at 650 nm (reference) using a Tecan Spark® 10M microplate reader. […]
For orientation: Formazan colour is commonly taken as a measure of viable cells.

Assay [3] has as its system WT cells. As to the kind of experiment: Cytoprotection against Eeyarestatin (EeI), WT cells. In kind it is cell-based, mouse. The method, then: (§2) FIG. 9: Cytoprotection of Idoxuridine against Eel. Eeyarestatin (Eel) is a potent inhibitor of endoplasmic reticulum associated protein degradation (ERAD) pathway, specifically targeting p97. Eel-mediated reduction of cell viability is counteracted by idoxuridine in both GPR37-tGFP overexpressing cells (A) and WT (B) cells. Data represented as mean+SD. Analysis performed via one-way ANOVA with Neuman-Keuls post-test for both Figures. *** indicates p<0.001.
(§3) Eeyarestatin (EeI) is a potent inhibitor of endoplasmic reticulum associated protein degradation (ERAD) pathway, specifically targeting p97.

Assay [4] has as its system GPR37-tGFP overexpressing cells. As to the kind of experiment: Cytoprotection against Eeyarestatin (EeI), GPR37-tGFP overexpressing cells. It counts as cell-based, mouse. Here is the method:
as §2, §3

Assay [5] shares this test system. As to the kind of experiment: Cytoprotection against H2O2, GPR37-tGFP overexpressing cells. To be noted: in-well H2O2 0.00025%, compared with WT cells. It counts as cell-based, mouse.
Text: as §1

Each structure is given as a SMILES string.

With `O=c1[nH]c(=O)n([C@H]2C[C@H](O)[C@@H](CO)O2)cc1I` [Idoxuridine, 2′-deoxy-5-iodouridine], the “effect on excitotoxicity induced by NMDA (PI positive cells)” value in the assay with primary cortical neurons is reported as “significantly counteracted”. For the same compound, in assay [1], the “effect on MG132-induced reduction of cell viability” value was “potently counteracted”. Further, the “effect on H2O2-induced reduction of cell viability” value in the assay with WT cells [2] is given as “counteracted”; in assay [5], “significantly stronger”. Moreover, in the assay on N2a-WT cells, the “cytoprotective effect against 6-OHDA (cell viability, MTT)” value is “protective”. Besides, the “effect on EeI-mediated reduction of cell viability” value (in the assay on WT cells [3]; in assay [4]) was “counteracted” each time.

The record behind these values is US11103525B2, “Idoxuridine and its analogs as neuroprotectans for the treatment of parkinsonism” (priority 2017, dated 2021).
